Data: patent publication US20230256099A1, “Safe Use of Bile Acids and Their Salts as Enhancers for Nasal Delivery of Pharmaceuticals” (priority 2020, published 2023)

Tests used:
[1] = aqueous; cited from earlier work
[2] = General toxicity study of bile salt (STC) by IN delivery: clinical pathology and organ histopathology (Example 2); details: rat, in vivo, NOAEL for bile salt (STC) at an IN delivery, relative dose, rats; 0.75 mg / 0.298 kg
Experimental: Each rat was treated with two (2) IN administrations of the respective formulations in Groups A1-A5.

[3] = aqueous epinephrine, same dose by IM route; cited from earlier work

| SMILES | CMC [1] | further results |
| --- | --- | --- |
| C[C@H](CCC(=O)[O-])[C@H]1CC[C@H]2[C@@H]3[C@H](O)C[C@@H]4C[C@H](O)CC[C@]4(C)[C@H]3C[C@H](O)[C@]12C.[Na+] [SC, sodium cholate] | ~4 mM |  |
| C[C@H](CCC(=O)[O-])[C@H]1CC[C@H]2[C@@H]3CC[C@@H]4C[C@H](O)CC[C@]4(C)[C@H]3CC[C@]12C.[Na+] [SLC, sodium lithocholate] | ~1 mM |  |
| C[C@H](CCC(=O)NCCS(=O)(=O)[O-])[C@H]1CC[C@H]2[C@@H]3[C@H](O)C[C@@H]4C[C@H](O)CC[C@]4(C)[C@H]3C[C@H](O)[C@]12C.[Na+] [STC, sodium taurocholate] |  | NOAEL [2]: ≥ 2.5 mg/kg |
| CNC[C@H](O)c1ccc(O)c(O)c1 [epinephrine] |  | bioavailability (BA) based on AUC of plasma concentration, IN relative to IM [3]: approximately 5% |
